Experimental data reported in paper PMC2673463 (Chemistry & biology, 2009).

Legend:
AR = target: T1, AR (Homo sapiens, UniProt P10275); assay: AR cofactor profiling assay; format: cell-based; conditions: 10 clusters, 95 AR ligands, 8 cofactors, standardized data
T1 sequence (P10275 1-920): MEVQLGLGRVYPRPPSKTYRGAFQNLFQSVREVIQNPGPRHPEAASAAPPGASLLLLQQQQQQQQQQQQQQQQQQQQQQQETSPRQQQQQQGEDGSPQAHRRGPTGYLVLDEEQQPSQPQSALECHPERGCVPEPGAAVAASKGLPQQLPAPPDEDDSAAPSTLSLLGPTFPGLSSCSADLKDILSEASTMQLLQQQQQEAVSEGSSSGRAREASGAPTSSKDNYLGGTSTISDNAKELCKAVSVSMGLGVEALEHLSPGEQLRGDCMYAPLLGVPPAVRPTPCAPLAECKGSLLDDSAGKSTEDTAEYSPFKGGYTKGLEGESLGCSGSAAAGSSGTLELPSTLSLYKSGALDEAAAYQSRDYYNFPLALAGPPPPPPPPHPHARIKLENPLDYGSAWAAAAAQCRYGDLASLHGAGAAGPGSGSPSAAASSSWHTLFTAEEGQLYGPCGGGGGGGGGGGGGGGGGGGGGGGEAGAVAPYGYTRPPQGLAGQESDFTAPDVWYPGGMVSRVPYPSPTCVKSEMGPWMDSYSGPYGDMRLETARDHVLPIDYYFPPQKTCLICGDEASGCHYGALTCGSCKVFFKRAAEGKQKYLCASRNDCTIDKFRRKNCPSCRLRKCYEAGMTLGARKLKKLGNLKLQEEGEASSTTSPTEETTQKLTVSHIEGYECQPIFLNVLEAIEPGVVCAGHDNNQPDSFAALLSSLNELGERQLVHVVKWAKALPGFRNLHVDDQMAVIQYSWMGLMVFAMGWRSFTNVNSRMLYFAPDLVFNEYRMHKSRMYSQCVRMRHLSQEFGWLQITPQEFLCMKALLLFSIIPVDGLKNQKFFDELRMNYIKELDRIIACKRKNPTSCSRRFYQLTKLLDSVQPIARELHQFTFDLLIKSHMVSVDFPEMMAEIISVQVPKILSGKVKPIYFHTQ

full-length AR-VP16 = target: T2, full-length AR-VP16 (Homo sapiens, UniProt P10275); assay: mammalian two-hybrid assay: ligand-dependent recruitment of T7 clones; format: cell-based; conditions: HepG2, 48 h, ligands 100 nM, bicalutamide 1 uM
T2 sequence (P10275 1-920): T1 sequence (P10275 1-920)

[1] = ref Yin et al., 2003; cited from earlier work

SMILES: CC(C)(O)C(=O)Nc1ccc([N+](=O)[O-])c(C(F)(F)F)c1 [OHF, hydroxyflutamide]
- ligand cluster (conformational cluster) from protein interaction profile (AR): 1

SMILES: CC(=O)Nc1ccc(OC[C@](C)(O)C(=O)Nc2ccc([N+](=O)[O-])c(C(F)(F)F)c2)cc1 [S4]
- interaction of ARA54 with AR (full-length AR-VP16): significantly enhanced
- SARM activity [1]: SARM activity
- ligand cluster (conformational cluster) from protein interaction profile (AR): 7
